Measurements as given in patent US20140242093A1, “METHODS AND COMPOSITIONS FOR MODULATING THE INNATE IMMUNE RESPONSE AND/OR MYOGENESIS IN A MAMMALIAN SUBJECT” (FRED HUTCHINSON CANCER RESEARCH CENTER, priority 2011, published 2014).

Tested on: control human primary myoblasts
Test: Expression microarray of primary myoblasts transduced with lentivirus carrying DUX4-fl, DUX4-s or GFP
Details: cultured human skeletal muscle
Description: Primary human myoblasts were collected and cultured as previously described (Snider et al., 2010). Primary myoblasts were maintained at or below 70% confluency for proliferation. For differentiation, cells were allowed to reach 95-100% confluency in growth medium. Once confluency was reached, the cells were changed to differentiation medium (F10 media supplemented with 1% horse serum, 10 μg/mL insulin, and 10 μg/mL transferrin, penicillin/streptomycin) and maintained for 4 days. Human RD cells were grown in DMEM in 10% bovine calf serum (Hyclone) and penicillin/streptomycin. The primary myoblasts were transduced with lentivirus carrying DUX-fl, DUX4- or GFP (MOI=15).
Expression microarrays were performed on the transduced cells at 24 hours after transduction as follows. […] Samples were analyzed by Illumina Human Whole Genome microarrays. Probe intensities were corrected, normalized, and summarized by the Lumi package of Bioconductor (Du et al., 2008). Differentially expressed genes were identified by the LIMMA package of Bioconductor (Wettenhall and Smyth, 2004). Gene set enrichment analysis (GSEA) was performed using the Bioconductor GOstats package (Falcon and Gentleman, 2007).

In the case of “DUX4-fl: full-length DUX4 protein (SEQ ID NO:110), expressed from lentiviral or pCS2 vectors or in vitro translated”, the C18orf56 expression fc is reported as −1.619, the CA9 expression fc is reported as −1.526 and the CABC1 expression fc is reported as −1.494. It also gave a CABYR expression fc of −1.758, a CCDC8 expression fc of −1.453 and a CEBPD expression fc of −1.521. The CLDN15 expression fc was −1.554, the CNTNAP1 expression fc was −1.744 and the COL8A1 expression fc was −1.527. The CRISPLD2 expression fc was −1.752, the CSF3 expression fc was −1.626 and the CYGB expression fc was −1.398. The CYP26B1 expression fc was −1.461, the CYP27A1 expression fc was −1.6 and the DAB2 expression fc was −1.807. The DCN expression fc was −1.673, the DDB2 expression fc was −1.408 and the DDIT4 expression fc was −1.522. It also gave a DDX60L expression fc of −1.638, a DKFZp451A211 expression fc of −1.833 and a DNAJB2 expression fc of −1.488. For the same substance, the DUSP10 expression fc was −1.39, the ERAP2 expression fc was −1.605 and the ESPNL expression fc was −1.567. It also gave an FADS1 expression fc of −1.845, an FAM110B expression fc of −1.675 and an FAM175A expression fc of −1.54. The FHL2 expression fc was −1.58, the FILIP1L expression fc was −1.784 and the FKBP5 expression fc was −1.758. For the same substance, the FOXQ1 expression fc was −1.432, the FPR1 expression fc was −1.603 and the FST expression fc was −1.812. The FUCA1 expression fc was −1.615, the GALK1 expression fc was −1.411 and the GALNTL2 expression fc was −1.834. For the same substance, the GAS1 expression fc was −1.732, the GBP4 expression fc was −1.478 and the GFPT2 expression fc was −1.612. For the same substance, the GPX8 expression fc was −1.606, the GRINA expression fc was −1.427 and the GSDMD expression fc was −1.763. For the same substance, the HAS2 expression fc was −1.679, the HCG4 expression fc was −1.651 and the HES4 expression fc was −1.751. For the same substance, the HLA-C expression fc was −1.788, the HLA-H expression fc was −1.798 and the HOXC6 expression fc was −1.539. It also gave an ID3 expression fc of −1.627, an IDH3B expression fc of −1.542 and an IFIT5 expression fc of −1.645. For the same substance, the IFITM2 expression fc was −1.713, the IGFBP5 expression fc was −1.441 and the IHPK3 expression fc was −1.859. For the same substance, the IL32 expression fc was −1.681, the IMPA2 expression fc was −1.437 and the IRAK2 expression fc was −1.447. For the same substance, the IRAK3 expression fc was −1.5, the ISCU expression fc was −1.547 and the ITPRIP expression fc was −1.763. The KIAA1618 expression fc was −1.843, the KLF6 expression fc was −1.659 and the KRT17 expression fc was −1.626. It also gave an LAP3 expression fc of −1.552, an LIMA1 expression fc of −1.463 and an LOC387763 expression fc of −1.46. The LOC389386 expression fc was −1.521, the LOC392437 expression fc was −1.674 and the LOC653879 expression fc was −1.416. For the same substance, the LOC728431 expression fc was −1.44, the MAMDC2 expression fc was −1.858 and the MAOA expression fc was −1.71. For the same substance, the MCEE expression fc was −1.398, the MGC16121 expression fc was −1.828 and the MIOS expression fc was −1.485. For the same substance, the MLPH expression fc was −1.788, the MMP3 expression fc was −1.509 and the MOCOS expression fc was −1.716. It also gave an MOV10 expression fc of −1.658, an MSC expression fc of −1.605 and an MSI2 expression fc of −1.763.
